This is an account of results in article PMC3242765, “Inhibitors of Alphavirus Entry and Replication Identified with a Stable Chikungunya Replicon Cell Line and Virus-Based Assays” (PLoS ONE, 2011).

Structures can show the parent of a compound that is named as a salt.

The test system of one test is CHIKV replicon. Description: microbe, parasite or virus in culture. Format: cell-based, Chikungunya virus (CHIKV).
Another test deals with SFV-Rluc. The following applies: for SFV replication % left: primary screening of chemical libraries, compounds tested at 50 µM; for % left (remaining SFV replication): Supplementary Table 2, moderately active compounds (25 - 60% remaining), primary screen at 50 µM.

For `CCN1C(=O)CC(=O)N(CC)C1=S`, the “CHIKV replicon % left” value with CHIKV replicon worked out at 89.2%. Also, in the test with SFV-Rluc, the “SFV replication % left (surviving fraction, remaining percentage of SFV replication)” value came out at 75.7%. For `CN(C)c1cccc2c(S(=O)(=O)Cl)cccc12`, in that order: 10.4% and 4.6%. Take `Cc1c(C)c2c(c(C)c1O)CCC(C)(C(=O)O)O2` (centres unmarked): in the test with CHIKV replicon, the “CHIKV replicon % left” value came to 101.5%. The “SFV replication % left (surviving fraction, remaining percentage of SFV replication)” value in the test on SFV-Rluc came out at 76.9%. For `C=CC[C@]1(O)CC[C@H]2[C@@H]3CCC4=CCCC[C@@H]4[C@H]3CC[C@@]21C`, in that order: 49.4% and 37.2%.

With `CC(C)NCC(O)c1ccc(O)c(O)c1.Cl` (centres unmarked), the “CHIKV replicon % left” value with CHIKV replicon turned out to be 99.3%. The “SFV replication % left (surviving fraction, remaining percentage of SFV replication)” value in the test with SFV-Rluc turned out to be 112.5%.

For `N[C@@H](Cc1ccc(O)c(O)c1)C(=O)O.N[C@@H](Cc1ccc(O)c(O)c1)C(=O)O`, the “CHIKV replicon % left” value with CHIKV replicon stood at 54.8%. For the same compound, in the test on SFV-Rluc, the “SFV replication % left (surviving fraction, remaining percentage of SFV replication)” value stood at 43.6%.

In the case of `Cc1ccccc1OCC(O)CO` (centres unmarked), the “CHIKV replicon % left” value in the test with CHIKV replicon is 54.1%. The “SFV replication % left (surviving fraction, remaining percentage of SFV replication)” value with SFV-Rluc is recorded as 79.2%. On to `CC(C)(CO)[C@@H](O)C(=O)NCCC(=O)[O-].CC(C)(CO)[C@@H](O)C(=O)NCCC(=O)[O-].O.[Ca+2]`, for which the “CHIKV replicon % left” value in the test on CHIKV replicon turned out to be 106.1%. In the test with SFV-Rluc, the “SFV replication % left (surviving fraction, remaining percentage of SFV replication)” value was determined as 93.1%. `C[C@H](C(=O)O)c1cccc(C(=O)c2ccccc2)c1.C[C@H](C(=O)O)c1cccc(C(=O)c2ccccc2)c1`: the “CHIKV replicon % left” value in the test on CHIKV replicon worked out at 99.6%. Take `CC(C)(C)NCC(O)c1ccc(O)c(CO)c1.CC(C)(C)NCC(O)c1ccc(O)c(CO)c1.O=S(=O)(O)O` (racemic) [(+/-) Salbutamol sulfate]: the “CHIKV replicon % left” value in the test on CHIKV replicon was found to be 71.9%. In addition, in the test on SFV-Rluc, the “SFV replication % left (surviving fraction, remaining percentage of SFV replication)” value is 105.0%. In the case of `CC(C)NCC(O)c1ccc(O)c(O)c1.CC(C)NCC(O)c1ccc(O)c(O)c1.O=S(=O)(O)O` (racemic) [(+/-)-Isoproterenol hemisulfate salt], the “CHIKV replicon % left” value in the test with CHIKV replicon worked out at 105.1%. In the test with SFV-Rluc, the “SFV replication % left (surviving fraction, remaining percentage of SFV replication)” value is on record as 110.9%. For `CC12CCC(CC1=O)C2(C)C` (racemic) [DL-Camphon, Campher (synth.)], in that order: 105.4% and 83.9%. The corresponding values for `O=C1c2c(O)cccc2Cc2cccc(O)c21` [1,8-Dihydroxyanthrone] are 40.9% and 27.2%. The corresponding values for `CCNCC(O)c1ccc(O)cc1` (centres unmarked) [1-(4-Oxyphenyl)-1-oxy-2-ethylamonoethane] are 105.4% and 86.9%. For the compound `CN(C)CCCN1c2ccccc2Sc2ccc(Cl)cc21` [Chlorpromazine hydrochloride], the “CHIKV replicon % left” value in the test on CHIKV replicon came to 105.4%.

On to `CN1[C@@H]2CC[C@H]1C[C@@H](OC(=O)C(O)c1ccccc1)C2` (some centres unmarked) [Homatropine hydrobromide], for which the “CHIKV replicon % left” value in the test with CHIKV replicon amounted to 100.4%. As to `CN1CCCCC1CCN1c2ccccc2Sc2ccc([S+](C)[O-])cc21.O=S(=O)(O)c1ccccc1` (centres unmarked) [PC-113], in the test on SFV-Rluc, the “SFV replication % left” value is 93.8%. Take `C[C@H](N)[C@H](O)c1cccc(O)c1.O=C(O)C(O)C(O)C(=O)O` [PC-114]: in the test on SFV-Rluc, the “SFV replication % left” value stood at 96.5%. For `CN1CCC(CN2c3ccccc3Sc3ccccc32)C1` (centres unmarked) [PC-115], in the test with SFV-Rluc, the “SFV replication % left” value was found to be 22.5%. Regarding `COc1ccc(OC)c(C(O)C(C)N)c1.Cl` (centres unmarked) [PC-116], the “SFV replication % left” value with SFV-Rluc was 98.4%. Turning to `C[N+]1(C)[C@@H]2CC[C@H]1C[C@@H](OC(=O)C(CO)c1ccccc1)C2.[Br-]` (some centres unmarked) [PC-117], the “SFV replication % left” value in the test with SFV-Rluc came to 70.9%. With `C[C@](N)(Cc1ccc(O)c(O)c1)C(=O)O` [PC-118], in the test on SFV-Rluc, the “SFV replication % left” value was determined as 99.1%. Consider `COC(=O)c1ccc(O)cc1` [PC-119], for which the “SFV replication % left” value with SFV-Rluc is recorded as 69.3%. In the case of `CC(=O)Oc1c(C)cc(OCC(O)CNC(C)C)c(C)c1C` (centres unmarked) [PC-120], in the test with SFV-Rluc, the “% left (remaining SFV replication)” value turned out to be 46.7% and the “SFV replication % left” value worked out at 46.2%. With `Cc1ncc([N+](=O)[O-])n1CCO` [PC-121], the “SFV replication % left” value in the test on SFV-Rluc is reported as 69.2%. Same read-out and setting: as for `COCCc1ccc(OCC(O)CNC(C)C)cc1.COCCc1ccc(OCC(O)CNC(C)C)cc1.O=C(O)C(O)C(O)C(=O)O` (centres unmarked) [PC-122], the figure is 65.7%; as for `CC(C)(C)NCC(O)COc1cccc2c1CC(O)C(O)C2` (centres unmarked) [PC-123], 60.5%; as for `N/C(CC(O)COc1cccc2ccccc12)=N/O` (centres unmarked) [PC-124], 20.8%. The same measure, in the same setting: with `CCn1cc(C(=O)O)c(=O)c2ccc(C)nc21` [PC-125] the figure was 80.4%; with `COc1ccc2cc([C@H](C)C(=O)O)ccc2c1` [PC-126], 92.7%. On the same count and under the same terms, with `COc1ccc(C(=O)Cc2c(CCN(C)C)cc3c(c2OC)OCO3)c(C(=O)O)c1OC` [PC-127] the figure was 118.3%; with `NC(=O)c1cccnc1` [PC-129], 116.9%.

For the compound `O=C1CN=C(c2ccccc2)c2cc([N+](=O)[O-])ccc2N1` [PC-130], in the test on SFV-Rluc, the “% left (remaining SFV replication)” value amounted to 46.6% and the “SFV replication % left” value is 46.0%.

Consider `O=C1CN(/N=C/c2ccc([N+](=O)[O-])o2)C(=O)N1` [PC-131], for which, in the test on SFV-Rluc, the “SFV replication % left” value was determined as 58.9%.

As for `NC(=O)N/N=C/c1ccc([N+](=O)[O-])o1` [PC-132], in the test on SFV-Rluc, the “SFV replication % left” value was determined as 83.7%. Still for that read-out and setting: as for `CC(N)C(O)c1ccc(O)c(O)c1.Cl` (centres unmarked) [PC-133], the figure is 118.0%. On the same count and under the same terms, as for `C#C[C@]1(O)CC[C@H]2[C@@H]3CCC4=CC(=O)CC[C@@H]4[C@H]3CC[C@@]21C` [PC-134], the figure is 107.8%. Consider `NCC(O)c1cccc(O)c1` (centres unmarked) [PC-135], for which the “SFV replication % left” value in the test with SFV-Rluc is 126.3%.

Turning to `CNCCC=C1c2ccccc2CCc2ccccc21.Cl` [PC-136], the “SFV replication % left” value in the test with SFV-Rluc came out at 5.3%. As to `COc1ccc2c(c1OC)C(=O)O[C@@H]2[C@H]1c2c(cc3c(c2OC)OCO3)CCN1C` [PC-137], the “SFV replication % left” value with SFV-Rluc turned out to be 103.5%.

For the compound `Cl.NCC(O)c1ccc(O)cc1` (centres unmarked) [PC-138], in the test with SFV-Rluc, the “SFV replication % left” value came out at 102.1%. As to `OCCN1CCN(CCCN2c3ccccc3C=Cc3ccccc32)CC1` [PC-139], the “SFV replication % left” value in the test with SFV-Rluc stood at 27.5%. On the same count and under the same terms, as for `C[C@@H]1O[C@@H](O[C@H]2C[C@@H](O)[C@]3(CO)[C@H]4[C@H](O)C[C@]5(C)[C@@H](C6=CC(=O)OC6)CC[C@]5(O)[C@@H]4CC[C@]3(O)C2)[C@H](O)[C@H](O)[C@H]1O` [PC-140], the figure is 90.9%; as for `O=C1Nc2ccc(Cl)cc2C(c2ccccc2)=NC1O` (centres unmarked) [PC-141], 79.1%; as for `C=CCOc1ccccc1OCC(O)CNC(C)C.Cl` (centres unmarked) [PC-142], 92.4%. With `CCCCC1C(=O)N(c2ccccc2)N(c2ccc(O)cc2)C1=O` (centres unmarked) [PC-143], in the test with SFV-Rluc, the “SFV replication % left” value was 84.8%. Regarding `CCOc1ccc(NC(C)=O)cc1` [PC-150], the “SFV replication % left (surviving fraction, remaining percentage of SFV replication)” value with SFV-Rluc was found to be 71.8%. On the same count and under the same terms, as for `CCOc1ccc(NC(C)=O)cc1` [PC-151], the figure is 80.6%. On the same count and under the same terms, with `CCC1(c2ccccc2)C(=O)NC(=O)NC1=O` [PC-153] the figure was 58.6%; with `CCN(CC)CCNC(=O)c1ccc(N)cc1.Cl` [PC-166], 89.0%; with `CCN(CC)CCOC(=O)c1ccc(N)cc1.Cl` [PC-167], 105.4%. Turning to `CC(CN1c2ccccc2Sc2ccccc21)N(C)C.Cl` (centres unmarked) [PC-169], in the test on SFV-Rluc, the “SFV replication % left (surviving fraction, remaining percentage of SFV replication)” value turned out to be 48.8%. The same measure, in the same setting: as for `CC(C)[N+](C)(CCOC(=O)C1c2ccccc2Oc2ccccc21)C(C)C.[Br-]` [PC-171], the figure is 77.0%; as for `CC(C)NCC(O)COc1cccc2ccccc12.Cl` (centres unmarked) [PC-174], 74.0%; as for `CC(Cc1ccc2c(c1)OCO2)NCC(O)c1ccc(O)c(O)c1.Cl` (centres unmarked) [PC-177], 128.4%. In the case of `Cc1ncc(CO)c(CO)c1O.Cl` [PC-178], the “SFV replication % left (surviving fraction, remaining percentage of SFV replication)” value in the test with SFV-Rluc is listed as 100.9%. The same measure, in the same setting: with `COc1ccc(CN(CCN(C)C)c2ccccn2)cc1.O=C(O)/C=C\C(=O)O` [PC-179] the figure was 73.7%.

In the case of `Oc1cccc(O)c1` [PC-181], the “SFV replication % left (surviving fraction, remaining percentage of SFV replication)” value in the test with SFV-Rluc came out at 67.1%. For the compound `Cc1cc2nc3c(=O)[nH]c(=O)nc-3n(C[C@H](O)[C@H](O)[C@H](O)CO)c2cc1C` [PC-182], the “% left (remaining SFV replication)” value in the test on SFV-Rluc stood at 43.1%. For `O=C1NS(=O)(=O)c2ccccc21.[Na]` [PC-183], the “SFV replication % left (surviving fraction, remaining percentage of SFV replication)” value in the test with SFV-Rluc is recorded as 105.0%. For the compound `CC(C)(C)NCC(O)c1ccc(O)c(CO)c1.CC(C)(C)NCC(O)c1ccc(O)c(CO)c1.O=S(=O)(O)O` (centres unmarked) [PC-185], the “SFV replication % left (surviving fraction, remaining percentage of SFV replication)” value in the test on SFV-Rluc was found to be 105.0%.

Turning to `CCC1(c2ccccc2)C(=O)N=C([O-])NC1=O.[Na+]` (centres unmarked) [PC-189], the “SFV replication % left (surviving fraction, remaining percentage of SFV replication)” value with SFV-Rluc is reported as 88.1%. Same read-out and setting: with `CC(C)NCC(O)c1ccc(NS(C)(=O)=O)cc1.Cl` (centres unmarked) [PC-191] the figure was 100.5%. For the compound `N=C(N)NS(=O)(=O)c1ccc(N)cc1` [PC-196], in the test with SFV-Rluc, the “SFV replication % left (surviving fraction, remaining percentage of SFV replication)” value was found to be 63.5%. `Cc1nnc(NS(=O)(=O)c2ccc(N)cc2)s1` [PC-200]: the “SFV replication % left (surviving fraction, remaining percentage of SFV replication)” value in the test on SFV-Rluc is reported as 100.4%. Still for that read-out and setting: as for `Cc1nnc(NS(=O)(=O)c2ccc(N)cc2)s1` [PC-203], the figure is 89.6%; as for `CCCCNc1ccc(C(=O)OCCN(C)C)cc1.Cl` [PC-215], 102.8%; as for `CC(C)(C)NC[C@H](O)COc1nsnc1N1CCOCC1.O=C(O)/C=C\C(=O)O` [PC-225], 129.1%.
